The results in this text go back to article PMC6572184, “New γ-Halo-δ-lactones and δ-Hydroxy-γ-lactones with Strong Cytotoxic Activity” (Molecules, 2019).

SMILES strings stand for the structures.

Assay type in all cases: cell-based
Data set [1] deals with Escherichia coli ATCC 8739. Description: Bactericidal activity, CFU counting method. The conditions noted are these: E. coli ATCC 8739; for Number of CFU/mL (× 10^7): 18 h at 37 °C, Control 9.47, Control with DMSO 9.30. Here is the method: (§1) The bacterial cultures: Escherichia coli ATCC 8739 and Staphylococcus aureus ATCC 65389 were grown on Luria–Bertani Agar for 18 h at 37 ^∘ C. The strain suspension was prepared in 0.85% saline, with an optical density equivalent to a 0.5 McFarland standard. Next, the following mixtures were prepared: 180 μ L of sterile enriched broth (BTL), 10 μ L of the bacterial suspension and 10 μ L of the tested compound (range 0.1–50 μ g/mL) solubilized in DMSO. As a negative control, only DMSO was added. As a sterility control, 180 μ L of BTL and 20 μ L saline were used. The microtiter plate was incubated at 37 ^∘ C for 18 h. The colony forming unit (CFU) method was used to evaluate the microbial population. The experiment was repeated three times. Gentamicin was used as the reference antibiotic.

Data set [2] concerns Staphylococcus aureus ATCC 65389. Description: Bactericidal activity, CFU counting method. The settings on record: S. aureus ATCC 65389; for Number of CFU/mL (× 10^7): 18 h at 37 °C, Control 21.36, Control with DMSO 20.85; for less CFU/mL (reduction of the number of CFU/mL): versus control. Here is the method: as §1
Data set [3] deals with AGS cell lines (human gastric adenocarcinoma). Description: MTT reduction cytotoxicity assay. The settings on record: for mean percentage of viable cells ± SD: 24 h. Here is the method: (§2) Cell cultures: The L929 mouse fibroblasts and human gastric adenocarcinoma cell line AGS were used for in vitro cytotoxicity assays. The cells were maintained under standard conditions (37 ^∘ C, 5% CO 2 ) in 25 cm^2 tissue culture flasks in RPMI-1640 medium supplemented with 10% fetal bovine serum (FBS) and antibiotics: 100 U/mL penicillin and 100 μ g/mL streptomycin. The cell suspension containing 10 ^8 cells in 1 mL, was obtained by treatment of confluent monolayers with 0.25% trypsin solution, washed and subcultured. Cell cultures were supplemented with medium to maintain them in log phase growth. The viability of the cells was assessed by exclusion of trypan blue dye.
(§3) Measurements of cellular metabolic activity and global growth inhibition: L929 cells were seeded into 96-well plates (2 × 10 ^5 cells/well) for 24 h, at 37 ^∘ C, 5% CO2 . Tested compounds 5a–c, 6a–c, 7a–c, 8a–c, 9b,c, 10b,c, 12a and 13a were diluted serially in RPMI-1640 medium in concentrations of 50, 20, 10, 5, 0.5 and 0.1 μ g/mL, added to the cells (100 μ L/well), and incubated under standard conditions for 24 h. The potential harmful effect of lactones on L929 and AGS cells was assessed by the ability of the cells to reduce 3-(4,5-dimethylthiazol-2-yl)-2,5-diphenyltetrazolium bromide (MTT) to formazan. The solution of MTT (5 mg/mL in PBS), was added to each well and the plates were incubated for 4h at 37 ^∘ C. Formazan crystals were dissolved with acidic isopropanol (0.1 M HCl in absolute isopropanol) and the plates were read in a plate reader (Victor 2) at 570 nm. The percentage of MTT reduction was calculated by comparing the absorbance of treated cells to that of untreated control cells. Results are expressed as the mean percentage of viable cells ± standard deviation (SD) of four independent experiments. Statistical significance was accepted at a p-value < 0.05.
(Tetrazolium dyes change colour on reduction, which living cells bring about.)

In data set [4] the test system is L929 cell lines (mouse fibroblasts). Description: MTT reduction cytotoxicity assay. The conditions noted are these: 24 h. Here is the method:
as §2, §3

Turning to `CC1CC(=O)OC(c2ccc(F)cc2)C1Cl` (stereo not drawn) [5c, Trans,trans-5-chloro-6-(4-fluorophenyl)-tetrahydro-4-methylpyran-2-one], the “Number of CFU/mL (× 10^7)” value in data set [1] was 9.46 × 10^7 CFU/mL; in data set [2], 14.83 × 10^7 CFU/mL. This molecule yielded an IC50 in data set [3] of 600 nM. In addition, the “mean percentage of viable cells ± SD” value stood at 54 ± 0.12% in data set [3] (0.1 μg/mL); 47 ± 0.12% in data set [3] (0.5 μg/mL); 44 ± 0.10% in data set [3] (5 μg/mL); 34 ± 0.09% in data set [3] (10 μg/mL); 21 ± 0.08% in data set [3] (20 μg/mL); 10 ± 0.12% in data set [3] (50 μg/mL). In addition, the “mean percentage of viable cells ± SD” value in data set [4] (0.1 μg/mL) is given as 26 ± 0.03%; in data set [4] (0.5 μg/mL), 21 ± 0.15%; in data set [4] (5 μg/mL), 14 ± 0.09%; in data set [4] (10 μg/mL), 10 ± 0.03%; in data set [4] (20 μg/mL) it was 4 ± 0.06%; in data set [4] (50 μg/mL) it was 2 ± 0.12%.
As to `CC1CC(=O)OC(c2ccc(F)cc2)C1Cl` (mixture of isomers) [6c, Cis,trans-5-chloro-6-(4-fluorophenyl)-tetrahydro-4-methylpyran-2-one], the “Number of CFU/mL (× 10^7)” value in data set [1] was 2.06 × 10^7 CFU/mL; in data set [2], 7.39 × 10^7 CFU/mL. The “less CFU/mL (reduction of the number of CFU/mL)” value is 70–78% in data set [1] (versus control) and 83% in data set [2]. Further, 2900 nM corresponded to half-maximal inhibition in data set [3] (IC50). Besides, the “mean percentage of viable cells ± SD” value in data set [3] (0.1 μg/mL) is given as 49 ± 0.10%; in data set [3] (0.5 μg/mL), 37 ± 0.05%; in data set [3] (5 μg/mL) it was 28 ± 0.06%; in data set [3] (10 μg/mL), 16 ± 0.10%; in data set [3] (20 μg/mL) it was 14 ± 0.07%; in data set [3] (50 μg/mL), 6 ± 0.08%. Besides, the “mean percentage of viable cells ± SD” value in data set [4] (0.1 μg/mL) is reported as 24 ± 0.03%; in data set [4] (0.5 μg/mL) it was 22 ± 0.05%; in data set [4] (5 μg/mL), 18 ± 0.12%; in data set [4] (10 μg/mL), 9 ± 0.05%; in data set [4] (20 μg/mL) it was 4 ± 0.08%; in data set [4] (50 μg/mL), 2 ± 0.02%.
For the molecule `CC1CC(=O)OC(c2ccccc2)C1Br` (mixture of isomers) [8b, Cis,trans-5-bromo-tetrahydro-4-methyl-6-phenylpyran-2-one], the “Number of CFU/mL (× 10^7)” value in data set [1] was 5.83 × 10^7 CFU/mL; in data set [2], 9.04 × 10^7 CFU/mL. For the same molecule, the IC50 in data set [3] turned out to be 1900 nM. Besides, the “mean percentage of viable cells ± SD” value is given as 44 ± 0.15% in data set [3] (0.1 μg/mL); 35 ± 0.10% in data set [3] (0.5 μg/mL); 31 ± 0.02% in data set [3] (5 μg/mL); 28 ± 0.09% in data set [3] (10 μg/mL); 17 ± 0.10% in data set [3] (20 μg/mL); 11 ± 0.05% in data set [3] (50 μg/mL). Further, the “mean percentage of viable cells ± SD” value stood at 24 ± 0.03% in data set [4] (0.1 μg/mL); 17 ± 0.08% in data set [4] (0.5 μg/mL); 15 ± 0.03% in data set [4] (5 μg/mL); 8 ± 0.05% in data set [4] (10 μg/mL); 4 ± 0.08% in data set [4] (20 μg/mL); 1 ± 0.02% in data set [4] (50 μg/mL).
On to `CC1CC(=O)OC(c2ccc(F)cc2)C1Br` (stereo not drawn) [7c, Trans,trans-5-bromo-6-(4-fluorophenyl)-tetrahydro-4-methylpyran-2-one], for which the “Number of CFU/mL (× 10^7)” value is listed as 6.52 × 10^7 CFU/mL in data set [1] and 6.42 × 10^7 CFU/mL in data set [2]. In data set [3], the IC50 was 3500 nM. The “mean percentage of viable cells ± SD” value in data set [3] (0.1 μg/mL) is recorded as 63 ± 0.03%; in data set [3] (0.5 μg/mL), 49 ± 0.06%; in data set [3] (5 μg/mL), 42 ± 0.02%; in data set [3] (10 μg/mL), 25 ± 0.12%; in data set [3] (20 μg/mL), 18 ± 0.10%; in data set [3] (50 μg/mL) it was 8 ± 0.07%. Further, the “mean percentage of viable cells ± SD” value amounted to 27 ± 0.08% in data set [4] (0.1 μg/mL); 21 ± 0.08% in data set [4] (0.5 μg/mL); 17 ± 0.02% in data set [4] (5 μg/mL); 11 ± 0.08% in data set [4] (10 μg/mL); 5 ± 0.05% in data set [4] (20 μg/mL); 1 ± 0.03% in data set [4] (50 μg/mL).
Regarding `CC1CC(=O)OC(c2cccc3ccccc23)C1Br` (mixture of isomers) [8a, Cis,trans-5-bromo-tetrahydro-4-methyl-6-(naphthalen-1-yl)pyran-2-one], the “Number of CFU/mL (× 10^7)” value is reported as 7.14 × 10^7 CFU/mL in data set [1] and 9.29 × 10^7 CFU/mL in data set [2]. For the same molecule, the “less CFU/mL (reduction of the number of CFU/mL)” value in data set [2] was 83%. Moreover, in data set [3], the IC50 was 1600 nM. Also, the “mean percentage of viable cells ± SD” value amounted to 61 ± 0.10% in data set [3] (0.1 μg/mL); 47 ± 0.06% in data set [3] (0.5 μg/mL); 39 ± 0.09% in data set [3] (5 μg/mL); 25 ± 0.05% in data set [3] (10 μg/mL); 17 ± 0.07% in data set [3] (20 μg/mL); 9 ± 0.09% in data set [3] (50 μg/mL). Besides, the “mean percentage of viable cells ± SD” value in data set [4] (0.1 μg/mL) was determined as 23 ± 0.03%; in data set [4] (0.5 μg/mL), 19 ± 0.03%; in data set [4] (5 μg/mL) it was 14 ± 0.03%; in data set [4] (10 μg/mL), 7 ± 0.06%; in data set [4] (20 μg/mL) it was 4 ± 0.02%; in data set [4] (50 μg/mL), 1 ± 0.15%.
As for `CC1CC(=O)OC(c2cccc3ccccc23)C1Cl` (mixture of isomers) [6a, Cis,trans-5-chloro-tetrahydro-4-methyl-6-(naphthalen-1-yl)pyran-2-one], the “Number of CFU/mL (× 10^7)” value in data set [1] is on record as 7.58 × 10^7 CFU/mL; in data set [2] it was 5.20 × 10^7 CFU/mL. Further, the IC50 in data set [3] stood at 1900 nM. For the same molecule, the “mean percentage of viable cells ± SD” value in data set [3] (0.1 μg/mL) stood at 35 ± 0.06%; in data set [3] (0.5 μg/mL) it was 28 ± 0.07%; in data set [3] (5 μg/mL), 23 ± 0.09%; in data set [3] (10 μg/mL) it was 19 ± 0.01%; in data set [3] (20 μg/mL), 8 ± 0.09%; in data set [3] (50 μg/mL), 8 ± 0.05%. Besides, the “mean percentage of viable cells ± SD” value is listed as 15 ± 0.03% in data set [4] (0.1 μg/mL); 11 ± 0.08% in data set [4] (0.5 μg/mL); 9 ± 0.15% in data set [4] (5 μg/mL); 7 ± 0.07% in data set [4] (10 μg/mL); 6 ± 0.03% in data set [4] (20 μg/mL); 2 ± 0.09% in data set [4] (50 μg/mL).
Take `CC1CC(=O)OC(c2ccccc2)C1Cl` (mixture of isomers) [6b, Cis,trans-5-chloro-tetrahydro-4-methyl-6-phenylpyran-2-one]: the “Number of CFU/mL (× 10^7)” value in data set [1] is given as 6.32 × 10^7 CFU/mL; in data set [2], 3.58 × 10^7 CFU/mL. The “less CFU/mL (reduction of the number of CFU/mL)” value in data set [2] was 78–83%. In addition, in data set [3], the concentration for half-maximal inhibition (IC50) was 4400 nM. Besides, the “mean percentage of viable cells ± SD” value in data set [3] (0.1 μg/mL) worked out at 42 ± 0.02%; in data set [3] (0.5 μg/mL), 35 ± 0.02%; in data set [3] (5 μg/mL), 28 ± 0.03%; in data set [3] (10 μg/mL), 21 ± 0.02%; in data set [3] (20 μg/mL), 14 ± 0.07%; in data set [3] (50 μg/mL), 8 ± 0.06%. The “mean percentage of viable cells ± SD” value in data set [4] (0.1 μg/mL) worked out at 32 ± 0.07%; in data set [4] (0.5 μg/mL), 27 ± 0.12%; in data set [4] (5 μg/mL), 25 ± 0.02%; in data set [4] (10 μg/mL), 16 ± 0.03%; in data set [4] (20 μg/mL), 4 ± 0.15%; in data set [4] (50 μg/mL), 2 ± 0.05%.

One may read the IC50 as the midpoint of a concentration-inhibition curve.
